From paper PMC12714101, “CD160-Derived Peptide as a Bidirectional Inhibitor Toward Immune Checkpoints BTLA/HVEM and HVEM/LIGHT” (Journal of Medicinal Chemistry, 2025)
Where a SMILES comes first, the peptide text is derived from it.

Assay: NMR in PBS-buffered aqueous solution (aggregation)
Format: physicochemical
Details: 298 K, 2 mM sample
Protocol: First, circular dichroism (CD) spectra were recorded for this peptide in H2O and phosphate-buffered saline (PBS). In water, the peptide adopts a disordered structure, characterized by a minimum at 197 nm. In contrast, in PBS, it undergoes conformational ordering, forming a β-strand structure with a minimum at 214 nm and maximum at 197 nm. […] To further investigate the peptide’s structure, nuclear magnetic resonance (NMR) spectra were acquired in both buffer-free aqueous solution and PBS-buffered aqueous solution. […] Narrow amide proton chemical shift dispersion (ΔδHN = 0.7 ppm), absence of medium- and long-range nuclear Overhauser effects (NOEs), and ^3JNα coupling constants indicate a lack of well-defined secondary structure (Figures S9 and S10). […] Molecular dynamics simulations with NOE-derived distance restraints generated an ensemble of structures showing high conformational diversity. […]
NMR spectra were acquired at 298 K on Bruker spectrometers (^1H 700.55 MHz, 16.4 T and 500.13 MHz, 11.7 T). […] The ^1H–^13C HSQC spectrum was recorded at the natural abundance of the ^13C isotope. […] Spectra were processed and analyzed, respectively, with Topspin 4.4.1 (Bruker, Ettlingen, Germany) and NMRFAM-Sparky software packages. […]

With `CC[C@@H]1NC(=O)[C@@H](NC(=O)[C@H](CCC(N)=O)NC(=O)[C@H](Cc2ccc(O)cc2)NC(C)=O)CSSC[C@@H](C(=O)N[C@@H](Cc2c[nH]cn2)C(=O)N[C@@H](Cc2ccccc2)C(=O)N[C@@H](Cc2ccccc2)C(N)=O)NC(=O)[C@H](CCC(N)=O)NC(=O)[C@H](CC(C)C)NC(=O)[C@H](CCCNC(=N)N)NC(=O)[C@H]([C@@H](C)CC)NC(=O)CNC(=O)[C@H](CO)NC(=O)[C@H](CCCCN)NC(=O)[C@H](CCC(N)=O)NC(=O)[C@H](CO)NC(=O)[C@H](CCCNC(=N)N)NC(=O)[C@H](C)NC1=O` [A5, CD160(110–128) ^(C113X,G125C)] (HELM PEPTIDE1{[ac].Y.Q.C.[Abu].A.R.S.Q.K.S.G.I.R.L.Q.C.H.F.F.[am]}$PEPTIDE1,PEPTIDE1,4:R3-17:R3$$$V2.0) the “Aggregation in PBS (NMR signal broadening)” value was “peptide aggregation”.
